# In patent US20110245316A1, “PREVENTION OR DELAY OF ONSET OF ORAL MUCOSITIS” (SCICLONE PHARMACEUTICALS, INC., priority 2010, published 2011):
# Tested on: oral mucositis in patients receiving chemoradiation for head and neck cancer
# Experiment: Phase 2 randomized, double-blind, placebo-controlled trial: onset of oral mucositis (WHO OM Scale) in patients receiving CT/RT
# Format: in vivo, human
# From the text: OM is a painful, debilitating, and costly toxicity of different chemoradiotherapy (CT/RT) regimens used to treat head and neck cancer. This trial is a phase 2, randomized, double-blind, dose-ranging, placebo-controlled three-arm study in patients receiving CT/RT for the treatment of head and neck cancer, to assess the safety and tolerability of γ-D-glutamyl-L-tryptophan (SCV-07) as well as its efficacy in delaying the onset of severe OM as assessed by the WHO Oral Mucositis Scale.
# The WHO OM Scale is the standard, validated instrument used in clinical trials to measure OM: Grade 0=none; Grade 1=erythema and soreness, no ulcers; Grade 2=ulcers, able to eat a solid diet; Grade 3=ulcers; requires a liquid diet; Grade 4=ulcers, not able to tolerate a solid or liquid diet, requires IV or tube feeding.
# 59 eligible patients with recently diagnosed, treatment naïve, pathologically-confirmed, non-metastatic squamous cell carcinoma of the oral cavity, oropharynx, hypopharynx or larynx were enrolled and treated with a concomitant regimen of CT/RT consisting of a continuous course of external beam irradiation (IMRT eligible) with a minimum cumulative dose of 50 Gray (Gy) and cisplatin monotherapy administered using standard weekly or tri-weekly dosing regimens (80-100 mg/m^2 administered on Days 0, 21 and 42) or weekly (30-40 mg/m^2). At least two ‘at risk’ intraoral sites were included in the radiation fields and received a cumulative RT dose of at least 50 Gy. Subjects were equally randomized to receive either placebo or one of two doses of γ-D-glutamyl-L-tryptophan (0.02 or 0.1 mg/kg) on each radiation day for up to 7 weeks.
# Tables 2-7 summarize the statistics for the Full Analysis Set “FAS” (57 subjects), and the completer population (52 subjects), with respect to delay of onset of severe oral mucositis. Also see FIGS. 1 and 2.
# SCV-07 efficacy, dosing and scheduling parameters were assessed in hamster models of acute, fractionated and concomitant chemoradiation (CRT). […] A multicenter, prospective, blinded, randomized trial evaluated SCV-07's ability to alter OM in CRT-treated HNC patients (n=57). Cytokine and gene microarray analyses were performed for samples obtained before and on the last radiation day.
# [1] = 0.02 mg/kg vs placebo, Completer Population
# [2] = 0.02 mg/kg, Completer Population
# [3] = 0.02 mg/kg, Completer Population, at 30-<35 Gy
# [4] = 0.02 mg/kg, Completer Population, at 35-<40 Gy
# [5] = 0.02 mg/kg, Completer Population, at 40-<45 Gy
# [6] = 0.02 mg/kg, Completer Population, at 45-<50 Gy
# [7] = 0.02 mg/kg, Completer Population, at 50-<55 Gy
# [8] = 0.02 mg/kg, Completer Population, at 55-<60 Gy
# [9] = 0.02 mg/kg, Completer Population, at 65-<70 Gy
# [10] = 0.02 mg/kg, Completer Population, at ≧70 Gy
# [11] = 0.10 mg/kg vs placebo, Completer Population
# [12] = 0.10 mg/kg, Completer Population
smiles,measurement,setting,value
"N[C@H](CCC(=O)N[C@@H](Cc1c[nH]c2ccccc12)C(=O)O)C(=O)O [SCV-07, γ-D-glutamyl-L-tryptophan]","Cox Regression Analysis of Time to Initial Occurrence of Sever OM, Hazard Ratio (95% CI)",[1],"1.884 (0.840, 4.225)"
same,"Cox Regression Analysis of Time to Initial Occurrence of Ulcerative OM, Hazard Ratio (95% CI)",[1],"0.737 (0.377, 1.444)"
same,"Cox Regression Analysis of Time to Initial Occurrence of Severe OM, Hazard Ratio (95% CI)","0.02 mg/kg vs placebo, FAS population","1.989 (0.908, 4.357)"
same,"Cumulative Dose of RT (Gy) at Initial Onset of Severe OM, Max",[2],70 Gy
same,"Cumulative Dose of RT (Gy) at Initial Onset of Severe OM, Mean (SD)",[2],43 (18.7) Gy
same,"Cumulative Dose of RT (Gy) at Initial Onset of Severe OM, Median",[2],34 Gy
same,"Cumulative Dose of RT (Gy) at Initial Onset of Severe OM, Min",[2],18 Gy
same,"Cumulative Dose of RT (Gy) at Initial Onset of Ulcerative OM, Max",[2],62 Gy
same,"Cumulative Dose of RT (Gy) at Initial Onset of Ulcerative OM, Mean (SD)",[2],24 (12.9) Gy
same,"Cumulative Dose of RT (Gy) at Initial Onset of Ulcerative OM, Median",[2],22 Gy
same,"Cumulative Dose of RT (Gy) at Initial Onset of Ulcerative OM, Min",[2],6 Gy
same,"Cumulative Dose of Radiation (Gy) Prior to Initial Occurrence of Severe OM (Delay to Onset of Severe OM), K-M Estimate, Mean (SE)",[2],42 (4.2) Gy
same,"Cumulative Dose of Radiation (Gy) Prior to Initial Occurrence of Severe OM, K-M Estimate, 25%-75%",[2],28-62 Gy
same,"Cumulative Dose of Radiation (Gy) Prior to Initial Occurrence of Severe OM, K-M Estimate, Median (95% CI)",[2],"34 (28, 62) Gy"
same,"Cumulative Dose of Radiation (Gy) Prior to Initial Occurrence of Ulcerative OM (Delay to Onset of Ulcerative OM), K-M Estimate, Mean (SE)",[2],24 (3.1) Gy
same,"Cumulative Dose of Radiation (Gy) Prior to Initial Occurrence of Ulcerative OM, K-M Estimate, 25%-75%",[2],18-30 Gy
same,"Cumulative Dose of Radiation (Gy) Prior to Initial Occurrence of Ulcerative OM, K-M Estimate, Median (95% CI)",[2],"22 (18, 30) Gy"
same,"Time (Days) to Initial Occurrence of Sever OM, K-M Estimate, 25%-7%",[2],18 to 42 days
same,"Time (Days) to Initial Occurrence of Sever OM, K-M Estimate, Mean (SE)",[2],28 (3.0) Days
same,"Time (Days) to Initial Occurrence of Sever OM, K-M Estimate, Median (95% CI)",[2],"25 (18, 42) Days"
same,"Time (Days) to Initial Occurrence of Ulcerative OM, K-M Estimate, 25%-7%",[2],10 to 20 days
same,"Time (Days) to Initial Occurrence of Ulcerative OM, K-M Estimate, Mean (SE)",[2],16 (2.2) Days
same,"Time (Days) to Initial Occurrence of Ulcerative OM, K-M Estimate, Median (95% CI)",[2],"15 (10, 20) Days"
same,Cum. Percent of Subjects with Ulcerative OM (WHO > 1),"0.02 mg/kg, Completer Population, at 5-<10 Gy","6% (1%, 35%)"
same,Cum. Percent of Subjects with Ulcerative OM (WHO > 1),"0.02 mg/kg, Completer Population, at 10-<15 Gy","18% (6%, 45%)"
same,Cum. Percent of Subjects with Ulcerative OM (WHO > 1),"0.02 mg/kg, Completer Population, at 15-<20 Gy","41% (22%, 67%)"
same,Cum. Percent of Subjects with Ulcerative OM (WHO > 1),"0.02 mg/kg, Completer Population, at 20-<25 Gy","59% (37%, 81%)"
same,Cum. Percent of Subjects with Ulcerative OM (WHO > 1),"0.02 mg/kg, Completer Population, at 25-<30 Gy","76% (55%, 93%)"
same,Cum. Percent of Subjects with Severe OM (WHO > 2),[3],"53% (32%, 77%)"
same,Cum. Percent of Subjects with Ulcerative OM (WHO > 1),[3],"88% (69%, 98%)"
same,Cum. Percent of Subjects with Severe OM (WHO > 2),[4],"53% (32%, 77%)"
same,Cum. Percent of Subjects with Ulcerative OM (WHO > 1),[4],"94% (76%, 100%)"
same,Cum. Percent of Subjects with Severe OM (WHO > 2),[5],"59% (37%, 81%)"
same,Cum. Percent of Subjects with Ulcerative OM (WHO > 1),[5],"94% (76%, 100%)"
same,Cum. Percent of Subjects with Severe OM (WHO > 2),[6],"59% (37%, 81%)"
same,Cum. Percent of Subjects with Ulcerative OM (WHO > 1),[6],"94% (76%, 100%)"
same,Cum. Percent of Subjects with Severe OM (WHO > 2),[7],"65% (43%, 86%)"
same,Cum. Percent of Subjects with Ulcerative OM (WHO > 1),[7],"94% (76%, 100%)"
same,Cum. Percent of Subjects with Severe OM (WHO > 2),[8],"71% (49%, 89%)"
same,Cum. Percent of Subjects with Ulcerative OM (WHO > 1),[8],"94% (76%, 100%)"
same,Cum. Percent of Subjects with Ulcerative OM (WHO > 1),"0.02 mg/kg, Completer Population, at 60-<65 Gy","100% (76%, 100%)"
same,Cum. Percent of Subjects with Severe OM (WHO > 2),"0.02 mg/kg, Completer Population, at 60->65 Gy","78% (56%, 94%)"
same,Cum. Percent of Subjects with Severe OM (WHO > 2),[9],"78% (56%, 94%)"
same,Cum. Percent of Subjects with Ulcerative OM (WHO > 1),[9],"100% (76%, 100%)"
same,Cum. Percent of Subjects with Ulcerative OM (WHO > 1),"0.02 mg/kg, Completer Population, at <5 Gy","0% (0%, 0%)"
same,Cum. Percent of Subjects with Severe OM (WHO > 2),"0.02 mg/kg, Completer Population, at <30 Gy","35% (18%, 62%)"
same,Cum. Percent of Subjects with Severe OM (WHO > 2),[10],"78% (56%, 94%)"
same,Cum. Percent of Subjects with Ulcerative OM (WHO > 1),[10],"100% (76%, 100%)"
same,"Cumulative Dose of RT (Gy) at Initial Onset of Severe OM, Max","0.02 mg/kg, FAS population",70 Gy
same,"Cumulative Dose of RT (Gy) at Initial Onset of Severe OM, Mean (SD)","0.02 mg/kg, FAS population",41 (18.0) Gy
same,"Cumulative Dose of RT (Gy) at Initial Onset of Severe OM, Median","0.02 mg/kg, FAS population",33 Gy
same,"Cumulative Dose of RT (Gy) at Initial Onset of Severe OM, Min","0.02 mg/kg, FAS population",18 Gy
same,"Cumulative Dose of Radiation (Gy) Prior to Initial Occurrence of Severe OM (Delay to Onset of Severe OM), K-M Estimate, Mean (SE)","0.02 mg/kg, FAS population",41 (3.8) Gy
same,"Cumulative Dose of Radiation (Gy) Prior to Initial Occurrence of Severe OM, K-M Estimate, 25%-75%","0.02 mg/kg, FAS population",28-62 Gy
same,"Cumulative Dose of Radiation (Gy) Prior to Initial Occurrence of Severe OM, K-M Estimate, Median (95% CI)","0.02 mg/kg, FAS population","34 (29, 59) Gy"
same,"Time (Days) to Initial Occurrence of Severe OM, K-M Estimate, 25%-7%","0.02 mg/kg, FAS population",18 to 42 days
same,"Time (Days) to Initial Occurrence of Severe OM, K-M Estimate, Mean (SE)","0.02 mg/kg, FAS population",28 (2.7) Days
same,"Time (Days) to Initial Occurrence of Severe OM, K-M Estimate, Median (95% CI)","0.02 mg/kg, FAS population","24 (19, 41) Days"
same,Cum. Percent of Subjects with Severe OM (WHO > 2),"0.02 mg/kg, FAS population, at 30-<35 Gy","52% (32%, 75%)"
same,Cum. Percent of Subjects with Severe OM (WHO > 2),"0.02 mg/kg, FAS population, at 35-<40 Gy","58% (37%, 79%)"
same,Cum. Percent of Subjects with Severe OM (WHO > 2),"0.02 mg/kg, FAS population, at 40-<45 Gy","63% (42%, 83%)"
same,Cum. Percent of Subjects with Severe OM (WHO > 2),"0.02 mg/kg, FAS population, at 45-<50 Gy","63% (42%, 83%)"
same,Cum. Percent of Subjects with Severe OM (WHO > 2),"0.02 mg/kg, FAS population, at 50-<55 Gy","68% (47%, 87%)"
same,Cum. Percent of Subjects with Severe OM (WHO > 2),"0.02 mg/kg, FAS population, at 55-<60 Gy","73% (53%, 90%)"
same,Cum. Percent of Subjects with Severe OM (WHO > 2),"0.02 mg/kg, FAS population, at 60-<65 Gy","80% (59%, 94%)"
same,Cum. Percent of Subjects with Severe OM (WHO > 2),"0.02 mg/kg, FAS population, at 65-<70 Gy","80% (59%, 94%)"
same,Cum. Percent of Subjects with Severe OM (WHO > 2),"0.02 mg/kg, FAS population, at >30 Gy","36% (19%, 61%)"
same,Cum. Percent of Subjects with Severe OM (WHO > 2),"0.02 mg/kg, FAS population, at ≧70 Gy","80% (59%, 94%)"
same,"Cox Regression Analysis of Time to Initial Occurrence of Sever OM, Hazard Ratio (95% CI)",[11],"1.002 (0.433, 2.319)"
same,"Cox Regression Analysis of Time to Initial Occurrence of Ulcerative OM, Hazard Ratio (95% CI)",[11],"0.475 (0.225, 1.004)"
same,"Cox Regression Analysis of Time to Initial Occurrence of Severe OM, Hazard Ratio (95% CI)","0.10 mg/kg vs placebo, FAS population","1.100 (0.484, 2.500)"
same,"Cumulative Dose of RT (Gy) at Initial Onset of Severe OM, Max",[12],72 Gy
same,"Cumulative Dose of RT (Gy) at Initial Onset of Severe OM, Mean (SD)",[12],55 (14.8) Gy
same,"Cumulative Dose of RT (Gy) at Initial Onset of Severe OM, Median",[12],57 Gy
same,"Cumulative Dose of RT (Gy) at Initial Onset of Severe OM, Min",[12],20 Gy
same,"Cumulative Dose of RT (Gy) at Initial Onset of Ulcerative OM, Max",[12],68 Gy
same,"Cumulative Dose of RT (Gy) at Initial Onset of Ulcerative OM, Mean (SD)",[12],31 (16.6) Gy
